Test results published in US11279694B2, “Alvocidib prodrugs and their use as protein kinase inhibitors” (Sumitomo Dainippon Pharma Oncology, Inc., priority 2016, dated 2022).
Several values for one entry are separate records, joined by “and”; a condition that tells them apart may be missing. Identical values can stand only once.

Columns and labels:
[1] = Pharmacokinetic testing of representative compounds in CD-1 mice, oral dosing; format: in vivo; conditions: mean ± SD; for AUC0→∞, analyte: prodrug compound / AUCLast, analyte: prodrug compound / half-life / Tmax: dosed orally 10 mg/kg, analyte = dosed prodrug, nd = none detected; for half-life / Tmax: mouse, in vivo, po; for half-life: read-out: Half Life, analyte: prodrug compound (converted); for Tmax: read-out: Tmax, analyte: prodrug compound
Description: Representative compounds were tested for pharmacokinetic activity in CD-1 mice. Mice were dosed orally with 10 mg/kg of each representative compound as well as alvocidib.
The results in Table 3 show the tested compounds afforded high exposure of released alvocidib and no apparent exposure of the prodrug compounds. Additional results are shown in Tables 4 and 5, including use of alvocidib.HCl as a control: […]

[2] = Comparison of exposure of released alvocidib to parent prodrug exposure; format: in vivo; conditions: expressed as a percentage of the released alvocidib exposure
Description: Representative prodrug compounds (i.e., Compounds 10, 21-28 and 29-31) were tested to determine the resultant exposure of released alvocidib as well exposure of the parent compound. The exposure of the parent prodrug is expressed as a percentage of the released alvocidib exposure (% F). The released alvocidib exposure (% F) for each prodrug was calculated as a percentage of the exposure of alvocidib, dosed orally at an equivalent dose.

[3] = labelled compound dosed orally 10 mg/kg, analyte = alvocidib (released from prodrug, or alvocidib.HCl control), hydrochloride, 10 mg/kg

Q: With `CN1CC[C@H](c2c(O)cc(O)c3c(=O)cc(-c4ccccc4Cl)oc23)[C@H](O)C1.Cl` [Alvocidib•HCl, 2-(2-chlorophenyl)-5,7-dihydroxy-8-[(3S,4R)-3-hydroxy-1-methylpiperidin-4-yl]-4H-chromen-4-one hydrochloride, reference compound] as the molecule, how does the “AUC0→∞, analyte: Alvocidib” value [1, 3] read?
A: 10,933.3 ± 4498.0 ng · h/mL or ng · h/G and 10,603.8 ± 1968.4 ng · h/mL or ng · h/G

Q: What about the “AUCLast, analyte: Alvocidib” value [1, 3] of the same molecule?
A: 7275.2 ± 2572.2 ng · h/mL or ng · h/G and 9952.7 ± 1769.5 ng · h/mL or ng · h/G

Q: Which results are given for `CCOC(=O)O[C@@H]1CN(C)CC[C@@H]1c1c(O)cc(O)c2c(=O)cc(-c3ccccc3Cl)oc12` [Compound 10, (3S, 4R)-4-(2-(2-chlorophenyl)-5,7-dihydroxy-4-oxo-4H-chromen-8-yl)-1-methylpiperidin-3-yl ethyl carbonate]?
A: AUC0→∞, analyte: prodrug compound [1]: 646.8 ± 219.4 ng · h/mL or ng · h/G; AUCLast, analyte: prodrug compound [1]: 405.4 ± 215.6 ng · h/mL or ng · h/G; half-life [1]: 228 ± 36 min; Tmax [1]: 15 min; exposure of the parent prodrug [2]: 2%

Q: Which “AUC0→∞, analyte: prodrug compound” value [1] does the source give for `COC(=O)O[C@@H]1CN(C)CC[C@@H]1c1c(O)cc(O)c2c(=O)cc(-c3ccccc3Cl)oc12` [Compound 11, (3S, 4R)-4-(2-(2-chlorophenyl)-5,7-dihydroxy-4-oxo-4H-chromen-8-yl)-1-methylpiperidin-3-yl methyl carbonate] here?
A: 275.1 ± 24.1 ng · h/mL or ng · h/G

Q: What about the “AUCLast, analyte: prodrug compound” value [1] of the same molecule?
A: 238.3 ± 43.9 ng · h/mL or ng · h/G

Q: And the half-life [1]?
A: 252 ± 6 min

Q: What about the Tmax [1] of the same molecule?
A: 15 min

Q: Which “AUC0→∞, analyte: prodrug compound” value [1] does the source give for `CCNC(=O)O[C@@H]1CN(C)CC[C@@H]1c1c(O)cc(O)c2c(=O)cc(-c3ccccc3Cl)oc12` [Compound 12, (3S, 4R)-4-(2-(2-chlorophenyl)-5,7-dihydroxy-4-oxo-4H-chromen-8-yl)-1-methylpiperidin-3-yl ethylcarbamate] here?
A: 281.4 ± 28.3 ng · h/mL or ng · h/G

Q: And the “AUCLast, analyte: prodrug compound” value [1]?
A: 262.2 ± 27.8 ng · h/mL or ng · h/G

Q: What about the half-life [1] of the same molecule?
A: 126 ± 6 min

Q: What about the Tmax [1] of the same molecule?
A: 25.2 ± 6 min

Q: Which “AUC0→∞, analyte: prodrug compound” value [1] does the source give for `CNC(=O)O[C@@H]1CN(C)CC[C@@H]1c1c(O)cc(O)c2c(=O)cc(-c3ccccc3Cl)oc12` [Compound 13, (3S, 4R)-4-(2-(2-chlorophenyl)-5,7-dihydroxy-4-oxo-4H-chromen-8-yl)-1-methylpiperidin-3-yl methylcarbamate] here?
A: 620.2 ± 147.7 ng · h/mL or ng · h/G

Q: And the “AUCLast, analyte: prodrug compound” value [1]?
A: 594.7 ± 143.7 ng · h/mL or ng · h/G

Q: And the half-life [1]?
A: 120 ± 48 min

Q: And the Tmax [1]?
A: 24 ± 6 min

Q: With `CC(C)C(=O)O[C@@H]1CN(C)CC[C@@H]1c1c(O)cc(O)c2c(=O)cc(-c3ccccc3Cl)oc12` [Compound 22, (3S, 4R)-4-(2-(2-chlorophenyl)-5,7-dihydroxy-4-oxo-4H-chromen-8-yl)-1-methylpiperidin-3-yl isobutyrate] as the molecule, how does the “exposure of the parent prodrug” value [2] read?
A: 3%

Q: With `C[C@H](N)C(=O)O[C@@H]1CN(C)CC[C@@H]1c1c(O)cc(O)c2c(=O)cc(-c3ccccc3Cl)oc12` [Compound 27, (3S, 4R)-4-(2-(2-chlorophenyl)-5,7-dihydroxy-4-oxo-4H-chromen-8-yl)-1-methylpiperidin-3-yl L-alaninate] as the molecule, how does the “exposure of the parent prodrug” value [2] read?
A: low exposure

Q: With `CN1CC[C@H](c2c(O)cc(O)c3c(=O)cc(-c4ccccc4Cl)oc23)[C@H](OC(=O)CN)C1` [Compound 28, (3S, 4R)-4-(2-(2-chlorophenyl)-5,7-dihydroxy-4-oxo-4H-chromen-8-yl)-1-methylpiperidin-3-yl glycinate] as the molecule, how does the “exposure of the parent prodrug” value [2] read?
A: not detected

Q: Which “exposure of the parent prodrug” value [2] does the source give for `CCCCCCC(=O)O[C@@H]1CN(C)CC[C@@H]1c1c(O)cc(O)c2c(=O)cc(-c3ccccc3Cl)oc12` [Compound 31, (3S, 4R)-4-(2-(2-chlorophenyl)-5,7-dihydroxy-4-oxo-4H-chromen-8-yl)-1-methylpiperidin-3-yl heptanoate] here?
A: not detected

Q: With `CCCCC(=O)O[C@@H]1CN(C)CC[C@@H]1c1c(O)cc(O)c2c(=O)cc(-c3ccccc3Cl)oc12` [Compound 32, (3S, 4R)-4-(2-(2-chlorophenyl)-5,7-dihydroxy-4-oxo-4H-chromen-8-yl)-1-methylpiperidin-3-yl pentanoate] as the molecule, how does the “exposure of the parent prodrug” value [2] read?
A: not detected
